These are literature values, as cited in patent publication US20230180818A1, “AEROSOLISED FORMULATION” (NICOVENTURES TRADING LIMITED, priority 2018, published 2023).

For the data set the following is noted: compared to base cyclodextrins such as β-cyclodextrin.

2-hydroxy-propyl-β-cyclodextrin: the solubility in water entry is “increased solubility in water”.
